#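 How tested: cells in 96-well plates exposed to compound for 48 hours at five concentrations. At the TGI there is no net growth.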
# What was measured:
# Assay in all cases: growth of human tumour cells (NCI), 48 h
# 786-0 renal = test system: 786-0 renal
# A498 renal = test system: A498 renal
# A549 NSCLC = test system: A549 NSCLC
# ACHN renal = test system: ACHN renal
# BT-549 breast = test system: BT-549 breast
# CAKI-1 renal = test system: CAKI-1 renal
# CCRF-CEM leukemia = test system: CCRF-CEM leukemia
# COLO 205 colon = test system: COLO 205 colon
# DU-145 prostate = test system: DU-145 prostate
# EKVX NSCLC = test system: EKVX NSCLC
# HCT-116 colon = test system: HCT-116 colon
# HCT-15 colon = test system: HCT-15 colon
# HL-60(TB) leukemia = test system: HL-60(TB) leukemia
# HOP-62 NSCLC = test system: HOP-62 NSCLC
# HS 578T breast = test system: HS 578T breast
# HT29 colon = test system: HT29 colon
# IGROV1 ovarian = test system: IGROV1 ovarian
# K-562 leukemia = test system: K-562 leukemia
# KM12 colon = test system: KM12 colon
# LOX IMVI melanoma = test system: LOX IMVI melanoma
# M14 melanoma = test system: M14 melanoma
# MALME-3M melanoma = test system: MALME-3M melanoma
# MCF7 breast = test system: MCF7 breast
# MDA-MB-231 breast = test system: MDA-MB-231 breast
# MDA-MB-435 = test system: MDA-MB-435
# MDA-N = test system: MDA-N
# MOLT-4 leukemia = test system: MOLT-4 leukemia
# NCI-H226 lung = test system: NCI-H226 lung
# NCI-H23 lung = test system: NCI-H23 lung
# NCI-H460 lung = test system: NCI-H460 lung
# NCI-H522 lung = test system: NCI-H522 lung
# NCI/ADR-RES ovarian = test system: NCI/ADR-RES ovarian
# OVCAR-3 ovarian = test system: OVCAR-3 ovarian
# OVCAR-4 ovarian = test system: OVCAR-4 ovarian
# OVCAR-5 ovarian = test system: OVCAR-5 ovarian
# OVCAR-8 ovarian = test system: OVCAR-8 ovarian
# PC-3 prostate = test system: PC-3 prostate
# RPMI-8226 leukemia = test system: RPMI-8226 leukemia
# RXF 393 renal = test system: RXF 393 renal
# SF-268 CNS = test system: SF-268 CNS
# SF-295 CNS = test system: SF-295 CNS
# SF-539 CNS = test system: SF-539 CNS
# SK-MEL-5 melanoma = test system: SK-MEL-5 melanoma
# SK-OV-3 ovarian = test system: SK-OV-3 ovarian
# SN12C renal = test system: SN12C renal
# SNB-19 CNS = test system: SNB-19 CNS
# SNB-75 CNS = test system: SNB-75 CNS
# SW-620 colon = test system: SW-620 colon
# T-47D breast = test system: T-47D breast
# TK-10 renal = test system: TK-10 renal
# U251 CNS = test system: U251 CNS
# UACC-257 melanoma = test system: UACC-257 melanoma
# UACC-62 melanoma = test system: UACC-62 melanoma
# UO-31 renal = test system: UO-31 renal
# HOP-92 NSCLC = test system: HOP-92 NSCLC
# SK-MEL-2 melanoma = test system: SK-MEL-2 melanoma
# SK-MEL-28 melanoma = test system: SK-MEL-28 melanoma
smiles,measurement,setting,value
O=Cc1coc2ccccc2c1=O,TGI,786-0 renal,37.9 µM
same,TGI,A498 renal,> 100 µM
same,TGI,A549 NSCLC,84.9 µM
same,TGI,ACHN renal,45.2 µM
same,TGI,BT-549 breast,36.8 µM
same,TGI,CAKI-1 renal,52.9 µM
same,TGI,CCRF-CEM leukemia,69.7 µM
same,TGI,COLO 205 colon,30.4 µM
same,TGI,DU-145 prostate,> 100 µM
same,TGI,EKVX NSCLC,49.9 µM
same,TGI,HCT-116 colon,32 µM
same,TGI,HCT-15 colon,37.4 µM
same,TGI,HL-60(TB) leukemia,42.3 µM
same,TGI,HOP-62 NSCLC,43.8 µM
same,TGI,HS 578T breast,53.4 µM
same,TGI,HT29 colon,46.1 µM
same,TGI,IGROV1 ovarian,41.4 µM
same,TGI,K-562 leukemia,55.5 µM
same,TGI,KM12 colon,69.9 µM
same,TGI,LOX IMVI melanoma,37.1 µM
same,TGI,M14 melanoma,38.5 µM
same,TGI,MALME-3M melanoma,30.2 µM
same,TGI,MCF7 breast,45.7 µM
same,TGI,MDA-MB-231 breast,48.4 µM
same,TGI,MDA-MB-435,47.9 µM
same,TGI,MDA-N,52.3 µM
same,TGI,MOLT-4 leukemia,96.1 µM
same,TGI,NCI-H226 lung,84.4 µM
same,TGI,NCI-H23 lung,70.7 µM
same,TGI,NCI-H460 lung,50.9 µM
same,TGI,NCI-H522 lung,48.1 µM
same,TGI,NCI/ADR-RES ovarian,34.9 µM
same,TGI,OVCAR-3 ovarian,> 100 µM
same,TGI,OVCAR-4 ovarian,43.8 µM
same,TGI,OVCAR-5 ovarian,56.2 µM
same,TGI,OVCAR-8 ovarian,35.3 µM
same,TGI,PC-3 prostate,53.7 µM
same,TGI,RPMI-8226 leukemia,52.1 µM
same,TGI,RXF 393 renal,40.2 µM
same,TGI,SF-268 CNS,56.7 µM
same,TGI,SF-295 CNS,41.2 µM
same,TGI,SF-539 CNS,31.9 µM
same,TGI,SK-MEL-5 melanoma,39 µM
same,TGI,SK-OV-3 ovarian,50.9 µM
same,TGI,SN12C renal,58.6 µM
same,TGI,SNB-19 CNS,70.4 µM
same,TGI,SNB-75 CNS,0.0768 µM
same,TGI,SW-620 colon,41.5 µM
same,TGI,T-47D breast,> 100 µM
same,TGI,TK-10 renal,60.5 µM
same,TGI,U251 CNS,65.2 µM
same,TGI,UACC-257 melanoma,46.7 µM
same,TGI,UACC-62 melanoma,52.8 µM
same,TGI,UO-31 renal,28.8 µM
CC1OC(O)C(O)C(O)C1O (stereo not drawn),TGI,786-0 renal,> 100 µM
same,TGI,A498 renal,> 100 µM
same,TGI,A549 NSCLC,> 100 µM
same,TGI,ACHN renal,> 100 µM
same,TGI,BT-549 breast,> 100 µM
same,TGI,CAKI-1 renal,> 100 µM
same,TGI,COLO 205 colon,> 100 µM
same,TGI,DU-145 prostate,> 100 µM
same,TGI,EKVX NSCLC,> 100 µM
same,TGI,HCT-116 colon,> 100 µM
same,TGI,HCT-15 colon,> 100 µM
same,TGI,HOP-62 NSCLC,> 100 µM
same,TGI,HOP-92 NSCLC,> 100 µM
same,TGI,HS 578T breast,> 100 µM
same,TGI,HT29 colon,> 100 µM
same,TGI,IGROV1 ovarian,> 100 µM
same,TGI,K-562 leukemia,> 100 µM
same,TGI,KM12 colon,> 100 µM
same,TGI,LOX IMVI melanoma,> 100 µM
same,TGI,M14 melanoma,> 100 µM
same,TGI,MALME-3M melanoma,> 100 µM
same,TGI,MCF7 breast,> 100 µM
same,TGI,MDA-MB-231 breast,> 100 µM
same,TGI,MDA-MB-435,> 100 µM
same,TGI,MDA-N,> 100 µM
same,TGI,NCI-H226 lung,> 100 µM
same,TGI,NCI-H23 lung,> 100 µM
same,TGI,NCI-H460 lung,> 100 µM
same,TGI,NCI-H522 lung,> 100 µM
same,TGI,NCI/ADR-RES ovarian,> 100 µM
same,TGI,OVCAR-3 ovarian,> 100 µM
same,TGI,OVCAR-4 ovarian,> 100 µM
same,TGI,OVCAR-5 ovarian,> 100 µM
same,TGI,OVCAR-8 ovarian,> 100 µM
same,TGI,PC-3 prostate,> 100 µM
same,TGI,RPMI-8226 leukemia,> 100 µM
same,TGI,RXF 393 renal,> 100 µM
same,TGI,SF-268 CNS,> 100 µM
same,TGI,SF-295 CNS,> 100 µM
same,TGI,SF-539 CNS,> 100 µM
same,TGI,SK-MEL-2 melanoma,> 100 µM
same,TGI,SK-MEL-28 melanoma,> 100 µM
same,TGI,SK-MEL-5 melanoma,> 100 µM
same,TGI,SK-OV-3 ovarian,> 100 µM
same,TGI,SN12C renal,> 100 µM
same,TGI,SNB-19 CNS,> 100 µM
same,TGI,SNB-75 CNS,> 100 µM
same,TGI,SW-620 colon,> 100 µM
same,TGI,T-47D breast,> 100 µM
same,TGI,TK-10 renal,> 100 µM
same,TGI,U251 CNS,> 100 µM
same,TGI,UACC-257 melanoma,> 100 µM
same,TGI,UACC-62 melanoma,> 100 µM
same,TGI,UO-31 renal,> 100 µM
